Data as given in ChEMBL document CHEMBL1129601, “Inhibitors of acyl-CoA: cholesterol O-acyl transferase (ACAT) as hypocholesterolemic agents. CI-1011: an acyl sulfamate with unique cholesterol-lowering activity in animals fed noncholesterol-supplemented diets” (J Med Chem, 1996).
Where “and” joins values, the source holds several entries; their conditions need not be identical. Identical values can stand only once.

How the values were obtained:
Oryctolagus cuniculus [1] = experiment: Effect on Rabbits (Fed a Cholesterol-Free Casein Diet ) for plasma cholesterol at the dose of 10 mg/kg (post treatment); assay type: functional, organism-based; design: dose 10 mg/kg
Oryctolagus cuniculus [2] = experiment: Effect on Rabbits (Fed a Cholesterol-Free Casein Diet ) for plasma cholesterol at the dose of 1 mg/kg (post treatment); assay type: functional, organism-based; design: dose 1 mg/kg
Rattus norvegicus [3] = experiment: Effect on the Cholesterol fed rats for HDL-C in rats at the dose of 0.001 mg/kg by Chroinc screen test; assay type: functional; also: unit not given here
Rattus norvegicus [4] = experiment: Effect on the Cholesterol fed rats for HDL-C in rats at the dose of 0.03 mg/kg by Chroinc screen test; assay type: functional; also: unit not given here
Rattus norvegicus [5] = experiment: Effect on the Cholesterol fed rats for HDL-C in rats at the dose of 0.3 mg/kg by Chroinc screen test; assay type: functional; also: unit not given here
Rattus norvegicus [6] = experiment: Effect on the Cholesterol fed rats for HDL-C in rats at the dose of 10 mg/kg by Chroinc screen test; assay type: functional
Rattus norvegicus [7] = experiment: Effect on the Cholesterol fed rats for total cholesterol level in rats at the dose of 0.01 mg/kg by Chroinc screen test; assay type: functional
Rattus norvegicus [8] = experiment: Effect on the Cholesterol fed rats for total cholesterol level in rats at the dose of 0.03 mg/kg by Chroinc screen test; assay type: functional; also: unit not given here
Rattus norvegicus [9] = experiment: Effect on the Cholesterol fed rats for total cholesterol level in rats at the dose of 3 mg/kg by Chroinc screen test; assay type: functional
Rattus norvegicus [10] = experiment: Effect on the Normal, Chow fed rats for Plasma total triglyceride level in rats at the dose of 3 mg/kg; assay type: functional, organism-based; design: dose 3 mg/kg
Rattus norvegicus [11] = experiment: Effect on the Normal, Chow fed rats for Plasma total triglyceride level in rats at the dose of 30 mg/kg; assay type: functional, organism-based; design: dose 30 mg/kg
Rattus norvegicus [12] = experiment: Effect on the Cholesterol fed rats for non-HDL-C in rats at the dose of 0.03 mg/kg by Chroinc screen test; assay type: functional; also: unit not given here
Rattus norvegicus [13] = experiment: Effect on the Cholesterol fed rats for non-HDL-C in rats at the dose of 0.1 mg/kg by Chroinc screen test; assay type: functional
Rattus norvegicus [14] = experiment: Evaluated for %change in cholesterol fed rats for total cholesterol at the dose of 1 mg/kg determined by Chronic screen test; assay type: functional
Rattus norvegicus [15] = experiment: Evaluated for %change in cholesterol fed rats for HDL-C at the dose of 10 mg/kg determined by Chronic screen test; assay type: functional
Rattus norvegicus [16] = experiment: Evaluated for %change in cholesterol fed rats for non-HDL-C at the dose of 0.03 mg/kg determined by Chronic screen test; assay type: functional
Rattus norvegicus [17] = experiment: Evaluated for %change in cholesterol fed rats for non-HDL-C at the dose of 0.3 mg/kg determined by Chronic screen test; assay type: functional
Rattus norvegicus [18] = experiment: Evaluated for %change in cholesterol fed rats for total cholesterol at the dose of 0.001 mg/kg determined by Chronic screen test; assay type: functional
Rattus norvegicus [19] = experiment: Evaluated for %change in Normal, Chow fed for rats Plasma total triglyceride plasma level in rats at the dose of 10 mg/kg; assay type: functional
Rattus norvegicus [20] = experiment: Evaluated for %change in cholesterol fed rats at the dose of 0.1 mg/kg determined by Acute screen test; assay type: functional
Rattus norvegicus [21] = experiment: Evaluated for %change in cholesterol fed rats at the dose of 3 mg/kg determined by Acute screen test; assay type: functional
Rattus norvegicus [22] = experiment: Evaluated for %change in cholesterol fed rats for HDL-C at the dose of 0.03 mg/kg determined by Chronic screen test; assay type: functional
Rattus norvegicus [23] = experiment: Effect on the Normal, Chow fed rats for total cholesterol plasma level in rats at the dose of 10 mg/kg; assay type: functional, organism-based; design: dose 10 mg/kg
Rattus norvegicus [24] = experiment: Effect on the plasma cholesterol level in rats at the dose of 10 mg/kg by Acute screen test; assay type: functional, organism-based; design: dose 10 mg/kg
Oryctolagus cuniculus [25] = experiment: Effect on Rabbits (Fed a Cholesterol-Free Casein Diet ) for plasma cholesterol at the dose of 3 mg/kg (post treatment); assay type: functional, organism-based; design: dose 3 mg/kg
Rattus norvegicus [26] = experiment: Evaluated for %change in cholesterol fed rats for non-HDL-C at the dose of 1 mg/kg determined by Chronic screen test; assay type: functional

CC(C)c1cc(C(C)C)c(CC(=O)NS(=O)(=O)Oc2c(C(C)C)cccc2C(C)C)c(C(C)C)c1 [AVASIMIBE]
Plasma cholesterol (Oryctolagus cuniculus [1]): 118 mg/dL
Plasma cholesterol (Oryctolagus cuniculus [2]): 184 mg/dL
HDL-C (Rattus norvegicus [3]): 16
HDL-C (Rattus norvegicus [4]): 15
HDL-C (Rattus norvegicus [5]): 20
HDL-C (Rattus norvegicus [6]): 36
TC (Rattus norvegicus [7]): 619
TC (Rattus norvegicus [8]): 334
TC (Rattus norvegicus [9]): 92
Plasma TG (Rattus norvegicus [10]): 95 mg/dL
Plasma TG (Rattus norvegicus [11]): 58 mg/dL
Non-HDL-C (Rattus norvegicus [12]): 320
Non-HDL-C (Rattus norvegicus [13]): 114 and 306
Change (Rattus norvegicus [14]): -61%
Change (Rattus norvegicus [15]): 155%
Change (Rattus norvegicus [16]): -38%
Change (Rattus norvegicus [17]): -66%
Change (Rattus norvegicus [18]): 3%
Change (Rattus norvegicus [19]): -55%
Change (Rattus norvegicus [20]): -32%
Change (Rattus norvegicus [21]): -64%
Change (Rattus norvegicus [22]): -12%
Plasma TC (Rattus norvegicus [23]): 44 mg/dL
Plasma cholesterol (Rattus norvegicus [24]): 51 mg/dL
Plasma cholesterol (Oryctolagus cuniculus [25]): 171 mg/dL
Change (Rattus norvegicus [26]): -70%
